Read-outs that look alike come from different tables or passages of the source.
How the values were obtained:
[1] = target: T1, human μ opiate receptor (Homo sapiens, UniProt P35372); test: Affinity for the human μ opiate receptor ([3H]-naloxone displacement, CHO-K1 receptor membrane preparation, SPA); assay type: binding; details: 1.5 h, Table 3, to be read in the same way as Table 1; test concentration 1 μM; read-out: μ
T1 construct: purchased PerkinElmer Life Sciences, Zaventem, Belgium RB-HOM; host or cells: CHO-K1 cells (membrane preparation)
Protocol: Binding data of the compounds on the μ opioid receptor and data on the inhibition of reuptake of serotonin (5-HT) are given in Table 1. The data for the μ receptor were measured at a test concentration of 1 μM, and those for the serotonin reuptake at 10 μM. The values are stated in % inhibition.
Investigation of the Activity of the Compounds of the Invention Method for Determining the Affinity for the Human μ Opiate Receptor
The receptor affinity for the human p opiate receptor is determined in a homogeneous set-up in microtitre plates. For this, dilution series of the substances to be tested are incubated with a receptor membrane preparation (15-40 μg of protein/250 μl of incubation batch) of CHO-K1 cells which express the human p opiate receptor (RB-HOM receptor membrane preparation from PerkinElmer Life Sciences, Zaventem, Belgium) in the presence of 1 nmol/l of the radioactive ligand [^3H]-naloxone (NET719, PerkinElmer Life Sciences, Zaventem, Belgium) and 1 mg of WGA-SPA-Beads (wheat germ agglutinin SPA beads from Amersham/Pharmacia, Freiburg, Germany) in a total volume of 250 μl for 90 minutes at room temperature. 50 mmol/l of Tris-HCl supplemented with 0.06% of bovine serum albumin is used as the incubation buffer. 100 μmol/l of naloxone are additionally added for determination of the non-specific binding. After the end of the ninety-minute incubation time, the microtitre plates are centrifuged for 20 minutes at 1,000 g and the radioactivity is measured in a β-counter (Microbeta-Trilux, PerkinElmer Wallac, Freiburg, Germany). The percentage displacement of the radioactive ligand from its binding to the human p opiate receptor is determined at a concentration of the test substances of 1 μmol/l and stated as the percentage inhibition of the specific binding. Starting from the percentage displacement by various concentrations of the test substances, IC50 inhibitory concentrations which cause a 50 percent displacement of the radioactive ligand are calculated. By conversion by means of the Cheng-Prusoff relationship, Ki values for the test substances are obtained.

[2] = target: T2, bradykinin 1 receptor (B1R) of the rat (Rattus norvegicus, UniProt P97583); test: Functional investigation on the rat bradykinin 1 receptor (B1R), Ca2+ FLIPR assay in CHO K1 rB1R cells; assay type: cell-based; details: CHO-K1, B1R antagonism rat, test substance 10 μM, read-out: B1R Ant. r [10 μM] % Inhibition
T2 construct: expressed in transfected cells; host or cells: CHO K1 cells
T2 sequence (P97583 1-337): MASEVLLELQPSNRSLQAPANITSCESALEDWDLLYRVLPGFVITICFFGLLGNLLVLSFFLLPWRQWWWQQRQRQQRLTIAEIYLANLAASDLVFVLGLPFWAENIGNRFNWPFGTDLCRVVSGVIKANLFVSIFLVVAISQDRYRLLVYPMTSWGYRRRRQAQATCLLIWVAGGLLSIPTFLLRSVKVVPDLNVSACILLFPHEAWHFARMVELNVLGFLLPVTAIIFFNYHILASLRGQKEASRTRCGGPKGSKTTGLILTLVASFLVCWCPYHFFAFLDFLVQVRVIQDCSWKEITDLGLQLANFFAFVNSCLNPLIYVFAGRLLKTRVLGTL
How it was run: (§1)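 Cells were dye-loaded with Fluo-4 plus probenecid, then test substances added and Ca2+ influx compared with agonist control for % activation. After 10-20 min, EC80 agonist (Lys-Des-Arg9-bradykinin human; Des-Arg9-bradykinin rat) was applied; suppression gave % inhibition and IC50 values.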

[3] = target: T3, human bradykinin 1 receptor (B1R) (Homo sapiens, UniProt P46663); test: Functional investigation on the human bradykinin 1 receptor (B1R), Ca2+ FLIPR assay in CHO K1 hB1R cells; assay type: cell-based; details: CHO-K1, B1R antagonism human, test substance 10 μM, read-out: B1R Ant. h [10 μM] % Inhibition
T3 construct: expressed in transfected cells; host or cells: CHO K1 cells
T3 sequence (P46663 1-353): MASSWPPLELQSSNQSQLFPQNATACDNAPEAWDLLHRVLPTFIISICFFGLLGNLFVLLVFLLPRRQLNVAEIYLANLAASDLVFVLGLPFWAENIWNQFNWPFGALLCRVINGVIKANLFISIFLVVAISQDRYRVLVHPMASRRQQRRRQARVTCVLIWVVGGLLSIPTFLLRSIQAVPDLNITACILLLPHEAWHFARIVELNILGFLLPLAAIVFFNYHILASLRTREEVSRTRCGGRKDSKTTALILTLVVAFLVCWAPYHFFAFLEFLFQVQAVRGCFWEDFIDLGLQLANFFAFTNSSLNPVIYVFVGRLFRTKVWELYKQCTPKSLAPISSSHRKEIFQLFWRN
How it was run: as §1

[4] = % inhibition compared with the maximum achievable inhibition

T1 sequence (P35372 whole entry): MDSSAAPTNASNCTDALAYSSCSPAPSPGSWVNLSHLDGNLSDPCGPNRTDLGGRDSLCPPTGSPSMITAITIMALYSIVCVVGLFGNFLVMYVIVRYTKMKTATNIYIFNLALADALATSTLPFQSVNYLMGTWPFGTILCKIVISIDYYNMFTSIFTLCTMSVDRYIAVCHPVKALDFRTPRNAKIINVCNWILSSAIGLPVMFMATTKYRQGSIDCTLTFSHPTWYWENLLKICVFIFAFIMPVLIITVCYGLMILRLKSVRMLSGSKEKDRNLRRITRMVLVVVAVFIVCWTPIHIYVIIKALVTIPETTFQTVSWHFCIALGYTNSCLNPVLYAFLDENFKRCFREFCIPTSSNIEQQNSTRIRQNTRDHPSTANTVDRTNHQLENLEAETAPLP

SMILES | inhibition at 1 µM [1] [%] | inhibition at 10 µM ([2]; Ca2+ FLIPR, CHO K1 rB1R cells) [%] | inhibition at 10 µM ([3]; Ca2+ FLIPR, CHO K1 hB1R cells) [%] | inhibition at 10 µM [2, 4] [%] | inhibition at 10 µM [3, 4] [%]
COc1cc(C)c(S(=O)(=O)N2CCCCC2COCC(=O)NC2CCC(C(CCc3ccccc3)N3CCOCC3)CC2)c(C)c1 (stereo not drawn) [Example 733, 2-((1-(4-methoxy-2,6-dimethylphenylsulfonyl)piperidin-2-yl)methoxy)-N-(4-(1-morpholino-3-phenylpropyl)cyclohexyl)acetamide] | 21 | 100 | 87 |  | 
O=C(COCC1CCCN1S(=O)(=O)c1c(Cl)cc(Cl)cc1Cl)NC1CCC(C(CCc2ccccc2)N2CCCCC2)CC1 (stereo not drawn) [Example 697, N-(4-(3-phenyl-1-(piperidin-1-yl)propyl)cyclohexyl)-2-((1-(2,4,6-trichlorophenylsulfonyl)pyrrolidin-2-yl)methoxy)acetamide] | 76 | 97 | 71 |  | 
O=C(COCC1CCCN1S(=O)(=O)c1c(Cl)cc(Cl)cc1Cl)NCC1CCC(C(CCc2ccccc2)N2CCCC2)CC1 (stereo not drawn) [Example 752, N-((4-(3-phenyl-1-(pyrrolidin-1-yl)propyl)cyclohexyl)methyl)-2-((1-(2,4,6-trichlorophenylsulfonyl)pyrrolidin-2-yl)methoxy)acetamide] | 82 | 104 | 103 |  | 
COc1cc(C)c(S(=O)(=O)N2CCCC(OCC(=O)NC3CCC(C(CCc4ccccc4)N4CCCCC4)CC3)C2)c(C)c1 (stereo not drawn) [Example 675, 2-(1-(4-methoxy-2,6-dimethylphenylsulfonyl)piperidin-3-yloxy)-N-(4-(3-phenyl-1-(piperidin-1-yl)propyl)cyclohexyl)acetamide] | 37 | 89 | 97 |  | 
CN(CCOCC(=O)NC1CCC(C(CCc2ccccc2)N2CCCCC2)CC1)S(=O)(=O)c1c(Cl)cccc1Cl (stereo not drawn) [Example 665, 2-(2-(2,6-dichloro-N-methylphenylsulfonamido)ethoxy)-N-(4-(3-phenyl-1-(piperidin-1-yl)propyl)cyclohexyl)acetamide] | 18 | 28 | 94 |  | 
O=C(COCC1CCCN1S(=O)(=O)c1c(Cl)cc(Cl)cc1Cl)NC1CCC(C(c2ccccc2)N2CCOCC2)CC1 (stereo not drawn) [Example 698, N-(4-(morpholino(phenyl)methyl)cyclohexyl)-2-((1-(2,4,6-trichlorophenylsulfonyl)pyrrolidin-2-yl)methoxy)acetamide] | 40 | 86 | 39 |  | 
O=C(COC1CCCN(S(=O)(=O)c2c(Cl)cc(Cl)cc2Cl)C1)NC1CCC(C(c2ccccc2)N2CCCC2)CC1 (stereo not drawn) [Example 631, N-(4-(phenyl(pyrrolidin-1-yl)methyl)cyclohexyl)-2-(1-(2,4,6-trichlorophenylsulfonyl)piperidin-3-yloxy)acetamide] | 88 | 87 | 92 |  | 
COc1cc(C)c(S(=O)(=O)N2CCCC(OCC(=O)NC3CCC(C(CCc4ccccc4)N4CCOCC4)CC3)C2)c(C)c1 (stereo not drawn) [Example 674, 2-(1-(4-methoxy-2,6-dimethylphenylsulfonyl)piperidin-3-yloxy)-N-(4-(1-morpholino-3-phenylpropyl)cyclohexyl)acetamide] | 7 | 45 | 61 |  | 
CN1CCN(C(c2ccc(F)cc2)C2CCN(C(=O)COCC3CCc4ccccc4N3S(=O)(=O)c3ccc(Cl)c(Cl)c3)CC2)CC1 (stereo not drawn) [Example 808, 2-((1-(3,4-dichlorophenylsulfonyl)-1,2,3,4-tetrahydroquinolin-2-yl)methoxy)-1-(4-((4-fluorophenyl)(4-methylpiperazin-1-yl)methyl)piperidin-1-yl)ethanone] | 12 |  |  | 75 | 122
CN(CCOCC(=O)NCC1CCC(C(c2ccccc2)N2CCCC2)CC1)S(=O)(=O)c1c(Cl)cc(Cl)cc1Cl (stereo not drawn) [Example 626, N-((4-(phenyl(pyrrolidin-1-yl)methyl)cyclohexyl)methyl)-2-(2-(2,4,6-trichloro-N-methylphenylsulfonamido)ethoxy)acetamide] | 71 | 47 | 105 |  | 
COc1cc(C)c(S(=O)(=O)N2CCCC2COCC(=O)NCC2CCC(C(c3ccccc3)N3CCOCC3)CC2)c(C)c1 (stereo not drawn) [Example 709, 2-((1-(4-methoxy-2,6-dimethylphenylsulfonyl)pyrrolidin-2-yl)methoxy)-N-((4-(morpholino(phenyl)methyl)cyclohexyl)methyl)acetamide] | 8 | 104 | 82 |  | 
O=C(COC1CCN(S(=O)(=O)c2c(Cl)cc(Cl)cc2Cl)C1)NC1CCC(C(CCc2ccccc2)N2CCCCC2)CC1 (stereo not drawn) [Example 667, N-(4-(3-phenyl-1-(piperidin-1-yl)propyl)cyclohexyl)-2-(1-(2,4,6-trichlorophenylsulfonyl)pyrrolidin-3-yloxy)acetamide] | 32 | 17 | 57 |  | 
CN(CCOCC(=O)NC1CCC(C(c2ccccc2)N2CCOCC2)CC1)S(=O)(=O)c1ccc(Cl)cc1Cl (stereo not drawn) [Example 680, 2-(2-(2,4-dichloro-N-methylphenylsulfonamido)ethoxy)-N-(4-(morpholino(phenyl)methyl)cyclohexyl)acetamide] | 4 | 23 | 21 |  | 
O=C(COCC1CCCCN1S(=O)(=O)c1c(Cl)cc(Cl)cc1Cl)NC1CCC(C(c2ccccc2)N2CCCC2)CC1 (stereo not drawn) [Example 653, N-(4-(phenyl(pyrrolidin-1-yl)methyl)cyclohexyl)-2-((1-(2,4,6-trichlorophenylsulfonyl)piperidin-2-yl)methoxy)acetamide] | 94 | 95 | 101 |  | 
COc1cc(C)c(S(=O)(=O)N2CCCCC2COCC(=O)NC2CCC(C(c3ccccc3)N3CCCC3)CC2)c(C)c1 (stereo not drawn) [Example 652, 2-((1-(4-methoxy-2,6-dimethylphenylsulfonyl)piperidin-2-yl)methoxy)-N-(4-(phenyl(pyrrolidin-1-yl)methyl)cyclohexyl)acetamide] | 70 | 105 | 101 |  | 
CN(CCOCC(=O)NC1CCC(C(CCc2ccccc2)N2CCOCC2)CC1)S(=O)(=O)c1c(Cl)cc(C(F)(F)F)cc1Cl (stereo not drawn) [Example 670, 2-(2-(2,6-dichloro-N-methyl-4-(trifluoromethyl)phenylsulfonamido)ethoxy)-N-(4-(1-morpholino-3-phenylpropyl)cyclohexyl)acetamide] | 7 | 58 | 12 |  | 

Reference: patent publication US8106055B2, “Substituted amide compounds” (Gruenenthal GmbH, priority 2007, dated 2012)
